Measurements from article PMC2585998 (Molecular cell, 2008).

Target: SpoIVA (IVA; His6-SpoIVA) (Bacillus subtilis, UniProt P35149, K30A)
Assay: ATPase, ADP production by TLC of alpha-32P-ATP
Type: biochemical
Settings: Walker A mutant, diminished hydrolysis; 10 mM MgCl2, pH 7.5, 37 C

Sequence of SpoIVA (IVA; His6-SpoIVA) (P35149 whole entry K30A): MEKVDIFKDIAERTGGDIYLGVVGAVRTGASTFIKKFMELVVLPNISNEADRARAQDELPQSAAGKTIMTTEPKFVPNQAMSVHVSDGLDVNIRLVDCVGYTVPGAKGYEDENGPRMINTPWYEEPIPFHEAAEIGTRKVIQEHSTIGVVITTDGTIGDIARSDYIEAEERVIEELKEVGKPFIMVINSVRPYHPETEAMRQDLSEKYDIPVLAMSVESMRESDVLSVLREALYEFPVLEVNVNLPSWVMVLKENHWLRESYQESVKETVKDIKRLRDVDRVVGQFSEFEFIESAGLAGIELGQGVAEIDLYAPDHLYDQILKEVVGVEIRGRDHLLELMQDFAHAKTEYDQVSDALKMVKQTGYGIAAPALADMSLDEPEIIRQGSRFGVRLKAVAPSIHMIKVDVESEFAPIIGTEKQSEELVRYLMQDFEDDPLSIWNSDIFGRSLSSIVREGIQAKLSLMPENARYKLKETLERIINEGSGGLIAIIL

SMILES: Nc1ncnc2c1ncn2[C@@H]1O[C@H](COP(=O)(O)OP(=O)(O)OP(=O)(O)O)[C@@H](O)[C@H]1O [ATP]
- ATPase, ADP production by TLC of alpha-32P-ATP: Incubation of ATP with IVA^K30A, in contrast, led to the diminished accumulation of ADP
